Measurements: patent US7786174B2, “Methods and compounds for inhibiting amyloid deposits” (Bellus Health (International) Limited, priority 1999, dated 2010)

Assays:
Synthetic human IAPP = target: T1, Synthetic human IAPP (Homo sapiens, UniProt P10997); experiment: Rate of amyloid fibril formation by Thioflavine T (ThT) spectroscopy; assay type: biochemical; conditions: ThT 62.5 μM; excitation 440 nm, emission 482 nm; readings from 5 min, over 4-6 h and after overnight at room temperature
T1 construct: Synthetic human IAPP (Bachem) was dissolved in 40% trifluoroethanol and freeze-dried; purchased Bachem; host or cells: chemical synthesis
T1 sequence (P10997 34-70 limits assumed): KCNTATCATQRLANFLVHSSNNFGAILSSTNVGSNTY
Procedure: Determination of the Rate of Amyloid Fibril Formation by Thioflavine T Spectroscopy
Detection of ThT fluorescence can be used as a sensitive assay for amyloid fibril formation under different conditions.
Synthetic human IAPP (Bachem) was dissolved in 40% trifluoroethanol and freeze-dried into conveniently-sized aliquots. IAPP was prepared immediately before the measurements by dissolving in 40% 1,1,1,3,3,3-hexafluoro-2-propanol (HFIP) in water to maintain the peptide in alpha helical conformation and soluble. A stock solution of ThT (2.5 mM) was prepared, 7.9 mg in 10 mL Tris-HCl pH 7.0 and filtered (0.22 μm). Solutions were kept in the dark until use. Fluorescence was examined at 440 nm excitation (slit 5 nm), and emission at 482 nm (slit 10 nm) with stirring. […] The sample was stirred for 5 min. before taking a reading. Measurements were made at an initial time point (5 min. from sample preparation), at intervals over the next 4-6 h and after overnight incubation at room temperature.

IAPP = target: T2, IAPP (Homo sapiens, UniProt P10997); experiment: Circular dichroism analysis of IAPP-associated fibril formation (β-sheet conformation), co-incubation procedure; assay type: biochemical; conditions: change in ellipticity at 218 nm vs peptide-only control; molar ratio 1:10 peptide:compound; water or 10 mM phosphate buffer pH 7; relative value active / not active
T2 construct: add 10 μL of 10 mg/mL IAPP stock solution (final 100 μg peptide)
T2 sequence (P10997 34-70 limits assumed): T1 sequence (P10997 34-70 limits assumed)
Procedure: Cell/cuvette: Hellma quartz (QS) with 1.0 mm pathlength
Wavelength interval: 250 nm-190 nm
Scanning speed: 20 nm/min
The assay, a co-incubation procedure, examines the ability of a compound or substance to inhibit the assembly of amyloid fibrils, e.g., to test for the presence of the amyloidotic β-sheet conformation in the presence of soluble IAPP. Samples are run in the presence and absence (i.e., water alone) of buffering agent, which is done to determine if competitive effects are seen with the ionic buffer (usually phosphate).
Add components used at a molar ratio of 1:10 [peptide:compound]; add 10 μL of 10 mg/mL IAPP stock solution (final 100 μg peptide) to the aqueous solution containing compound to a final volume of 400 μl. The pH of the final assay solution is measured to ensure there is no fluctuation and the spectrum is accumulated using the parameters as shown above.
Add desired amount of compound to achieve a 1:10 molar ratio in 10 mM phosphate buffer, pH 7. Add 10 μL of 10 mg/mL IAPP stock solution (final peptide 100 μg) to the phosphate buffered solution containing the compound and bring to a final volume of 400 μL. The pH of the final assay solution is measured to ensure there is no fluctuation and the spectrum is accumulated using the parameters as shown above.
In both assays, a control sample is run with each test group.
Make fresh 1 mg/mL stock solution of IAPP in 10 mM phosphate buffer, pH 7. Add desired amount of compound to achieve a 1:10 molar ratio in 10 mM phosphate buffer, pH 7. Incubate for 3 days at room temperature. Make up to final volume of 400 μL with 10 mM phosphate buffer, pH 7. The pH of the final assay solution is measured to ensure there is no fluctuation and the spectrum is accumulated using the parameters as shown above.
Plots of the spectra (control and treated) are individually assembled and the changes in ellipticity at 218 nm are examined. This minimum is directly correlated with the amount of β-sheet present in the sample.

| SMILES | effect on IAPP-associated fibril assembly (ThT fluorescence) (Synthetic human IAPP) | Activity (IAPP) |
| --- | --- | --- |
| Cl.c1ccc2c(c1)CCNC2 [1,2,3,4-tetrahydroisoquinoline, HCl] | inhibit or prevent IAPP-associated fibril assembly | Active |
| O=S(=O)(O)CCCNCCCO [3-(3-hydroxy-1-propyl)amino-1-propanesulfonic acid] | inhibit or prevent IAPP-associated fibril assembly | Active |
| NCC(O)CS(=O)(=O)O (stereo not drawn) [3-amino-2-hydroxy-1-propanesulfonic acid] | inhibit or prevent IAPP-associated fibril assembly | Active |
| CN(C)CCCS(=O)(=O)O [3-dimethylamino-1-propanesulfonic acid] | inhibit or prevent IAPP-associated fibril assembly | Active |
| O=S(=O)([O-])CCCN1CC=C(c2ccccc2)CC1.[Na+] [4-phenyl-1-(3′-sulfopropyl)-1,2,3,6-tetrahydropyridine, sodium salt] | inhibit or prevent IAPP-associated fibril assembly | Active |
| COc1ccc(S(=O)(=O)[O-])c2cccnc12.[Na+] [8-methoxyquinoline-5-sulfonic acid, sodium salt] | inhibit or prevent IAPP-associated fibril assembly | Active |
| N[C@@H](COP(=O)(O)O)C(=O)O [O-phospho-L-serine] | inhibit or prevent IAPP-associated fibril assembly | Active |
| O=S(=O)([O-])NC1CCCCC1.[Na+] [cyclohexylsulfamic acid, sodium salt] | inhibit or prevent IAPP-associated fibril assembly | Active |
| O=C(O)C(F)(F)C(F)(F)C(F)(F)C(=O)O [hexafluoroglutaric acid] | inhibit or prevent IAPP-associated fibril assembly | Active |
